One assay deals with T1, 15-PGDH in A549 cells (Homo sapiens, UniProt P15428).
T1 construct: endogenous in cells; host or cells: A549
T1 sequence (P15428 1-266): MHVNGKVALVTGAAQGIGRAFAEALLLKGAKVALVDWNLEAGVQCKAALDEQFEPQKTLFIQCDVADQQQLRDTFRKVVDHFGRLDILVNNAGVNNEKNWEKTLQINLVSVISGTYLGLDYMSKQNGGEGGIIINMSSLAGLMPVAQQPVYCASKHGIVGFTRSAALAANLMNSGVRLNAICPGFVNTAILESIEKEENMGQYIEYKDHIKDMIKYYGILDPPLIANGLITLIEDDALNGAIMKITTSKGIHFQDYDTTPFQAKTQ
Put plainly: A549 cellular 15-PGDH assay (PGE2 accumulation, HTRF). The assay is classed as cell-based. Particulars: interleukin-stimulated, inhibitor 24 hrs, PGE2 by competitive HTRF, read-out: A549 Cell Assay IC50. The method in brief:
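Supernatant PGE2 was quantified by competitive HTRF, in which sample PGE2 blocks FRET between a europium cryptate-labelled antibody and labelled PGE2. It came from A549 epithelial cells induced with IL-13. IC50s were calculated from the inversely proportional signal.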

Assay [1] concerns the target T2, human recombinant 15-PGDH (Homo sapiens, UniProt P15428).
T2 sequence (P15428 1-266): T1 sequence (P15428 1-266)
The experiment in a line: Recombinant 15-PGDH enzymatic inhibition assay (PGDH-Lumi, NADH signal). Conditions: recombinant 15-PGDH; 15 min pre-incubation, 60 min reaction with PGE2 and NAD+, NADH signal. The assay is classed as biochemical. An outline of the steps:
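Buffer 50 mM Tris pH 7.5 with 0.01% Tween-20 and […]; compound, 22 two-fold dilutions, pre-incubated with enzyme 15 min before substrate.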

As to `CCC(O)c1cc2c(C3CC3)cc(-c3cnc4nn(C)cc4c3)nc2s1` (stereo not drawn) [Compound B13, 1-(4-cyclopropyl-6-(2-methyl-2H-pyrazolo[3,4-b]pyridin-5-yl)thieno[2,3-b]pyridin-2-yl)-1-propanol], the IC50 was 4.19 nM at 15-PGDH in A549 cells and 0.901 nM in assay [1].

Consider `Cn1cc2cc(-c3ccc4cc(C(O)C5CCOCC5)sc4n3)cnc2n1` (stereo not drawn) [Compound B15, (6-(2-methyl-2H-pyrazolo[3,4-b]pyridin-5-yl)thieno[2,3-b]pyridin-2-yl)(tetrahydro-2H-pyran-4-yl)methanol], for which the IC50 on 15-PGDH in A549 cells is 0.957 nM; in assay [1], 0.701 nM.

In the case of `Cn1cc2cc(-c3ccc4cc(C(O)C5CC5)sc4n3)cnc2n1` (stereo not drawn) [Compound B16, cyclopropyl(6-(2-methyl-2H-pyrazolo[3,4-b]pyridin-5-yl)thieno[2,3-b]pyridin-2-yl)methanol], the results for the IC50 (on 15-PGDH in A549 cells; in assay [1]) were 1.19 nM and 0.471 nM, respectively.

On to `Cn1cc2cc(-c3ccc4cc(C(O)C5CCC5)sc4n3)cnc2n1` (stereo not drawn) [Compound B18, cyclobutyl(6-(2-methyl-2H-pyrazolo[3,4-b]pyridin-5-yl)thieno[2,3-b]pyridin-2-yl)methanol], for which the IC50 at 15-PGDH in A549 cells was found to be 0.0918 nM; in assay [1], 0.382 nM.

Consider `Cn1cc2cc(-c3ccc4cc(C(O)C5CCOC5)sc4n3)cnc2n1` (stereo not drawn) [Compound B19], for which the figures for the IC50 (at 15-PGDH in A549 cells; in assay [1]) were 0.171 nM and 0.538 nM, respectively.

Take `CCC(O)c1cc2ccc(-c3cnc4nn(C)cc4c3)nc2s1` (stereo not drawn) [Compound B22, 1-(6-(2-methyl-2H-pyrazolo[3,4-b]pyridin-5-yl)thieno[2,3-b]pyridin-2-yl)-1-propanol]: the IC50 turned out to be 1.29 nM on 15-PGDH in A549 cells and 0.513 nM in assay [1].

As for `Cn1cc2cc(-c3ccc4cc(C(O)C(F)(F)F)sc4n3)cnc2n1` (stereo not drawn) [Compound B23, 2,2,2-trifluoro-1-(6-(2-methyl-2H-pyrazolo[3,4-b]pyridin-5-yl)thieno[2,3-b]pyridin-2-yl)ethanol], the half-inhibitory concentration (IC50) on 15-PGDH in A549 cells worked out at 1.41 nM; in assay [1], 0.341 nM.

On to `CC(C)C(O)c1cc2ccc(-c3cnc4nn(C)cc4c3)nc2s1` (stereo not drawn) [Compound B24, 2-methyl-1-(6-(2-methyl-2H-pyrazolo[3,4-b]pyridin-5-yl)thieno[2,3-b]pyridin-2-yl)propan-1-ol], for which the values for the IC50 (on 15-PGDH in A549 cells; in assay [1]) were 0.579 nM and 0.517 nM, respectively.

As to `CC(O)c1cc2ccc(-c3cnc4nn(C)cc4c3)nc2s1` (stereo not drawn) [Compound B25, 1-(6-(2-methyl-2H-pyrazolo[3,4-b]pyridin-5-yl)thieno[2,3-b]pyridin-2-yl)ethanol], the IC50 at 15-PGDH in A549 cells is 16.4 nM; in assay [1] it was 5.85 nM.

In the case of `CCCC(O)c1cc2ccc(-c3cnc4nn(C)cc4c3)nc2s1` (stereo not drawn) [Compound B27, 1-(6-(2-methyl-2H-pyrazolo[3,4-b]pyridin-5-yl)thieno[2,3-b]pyridin-2-yl)-1-butanol], the IC50 on 15-PGDH in A549 cells stood at 0.597 nM; in assay [1], 0.402 nM.

Take `Cn1cc2cc(-c3ccc4cc(C(O)C5COC5)sc4n3)cnc2n1` (stereo not drawn) [Compound B28, (6-(2-methyl-2H-pyrazolo[3,4-b]pyridin-5-yl)thieno[2,3-b]pyridin-2-yl)(oxetan-3-yl)methanol]: the IC50 on 15-PGDH in A549 cells came out at 1.07 nM; in assay [1], 0.463 nM.

Take `COCCC(O)c1cc2ccc(-c3cnc4nn(C)cc4c3)nc2s1` (stereo not drawn) [Compound B29, 3-methoxy-1-(6-(2-methyl-2H-pyrazolo[3,4-b]pyridin-5-yl)thieno[2,3-b]pyridin-2-yl)propan-1-ol]: the IC50 on 15-PGDH in A549 cells worked out at 1.04 nM; in assay [1] it was 0.38 nM.

On to `Cn1cc2cc(-c3ccc4cc(C(O)C5CC(F)(F)C5)sc4n3)cnc2n1` (stereo not drawn) [Compound B30, (3,3-difluorocyclobutyl)(6-(2-methyl-2H-pyrazolo[3,4-b]pyridine-5-yl)thieno[2,3-b]pyridine-2-yl)methanol], for which the half-inhibitory concentration (IC50) at 15-PGDH in A549 cells is 0.795 nM; in assay [1], 0.26 nM.

On to `Cn1cc2cc(-c3ccc4cc(C(O)C5CCC(F)(F)CC5)sc4n3)cnc2n1` (stereo not drawn) [Compound B31, (4,4-difluorocyclohexyl)(6-(2-methyl-2H-pyrazolo[3,4-b]pyridin-5-yl)thieno[2,3-b]pyridin-2-yl)methanol], for which the results for the half-inhibitory concentration (IC50) (on 15-PGDH in A549 cells; in assay [1]) were 0.553 nM and 0.42 nM, respectively.

As to `COCC(O)c1cc2ccc(-c3cnc4nn(C)cc4c3)nc2s1` (stereo not drawn) [Compound B32, 2-methoxy-1-(6-(2-methyl-2H-pyrazolo[3,4-b]pyridin-5-yl)thieno[2,3-b]pyridin-2-yl)ethanol], the values for the IC50 (on 15-PGDH in A549 cells; in assay [1]) were 7.49 nM and 1.18 nM, respectively.

With `Cn1cnc(-c2ccc3cc(C(O)C4CC(F)(F)C4)sc3n2)cc1=O` (stereo not drawn) [Compound B49, 6-(2-((3,3-difluorocyclobutyl)(hydroxy)methyl)thieno[2,3-b]pyridine-6-yl)-3-methylpyrimidin-4(3H)-one], the values for the IC50 (at 15-PGDH in A549 cells; in assay [1]) were 0.739 nM and 0.608 nM, respectively.

With `CC(C)n1cc2cc(-c3ccc4cc(C(O)C5CC(F)(F)C5)sc4n3)ccc2n1` (stereo not drawn) [Compound B56, (3,3-difluorocyclobutyl)(6-(2-(2-propanyl)-2H-indazol-5-yl)thieno[2,3-b]pyridin-2-yl)methanol], the IC50 turned out to be 3.22 nM at 15-PGDH in A549 cells and 1.15 nM in assay [1].

Consider `Cn1cc2cc(-c3ccc4cc(C(O)C5CCCC5)sc4c3)cnc2n1` (stereo not drawn) [Compound B58, cyclopentyl(6-(2-methyl-2H-pyrazolo[3,4-b]pyridin-5-yl)-1-benzothiophen-2-yl)methanol], for which the IC50 was found to be 2.5 nM at 15-PGDH in A549 cells and 0.488 nM in assay [1].

Consider `Cn1cc2cc(-c3ccc4cc(C(O)CCC(F)(F)F)sc4c3)cnc2n1` (stereo not drawn) [Compound B60, 4,4,4-trifluoro-1-(6-(2-methyl-2H-pyrazolo[3,4-b]pyridin-5-yl)-1-benzothiophen-2-y1)-1-butanol], for which the IC50 at 15-PGDH in A549 cells worked out at 9.36 nM; in assay [1], 3.03 nM.

For the molecule `CC(C)n1ncc2cc(-c3ccc4cc(C(O)C5CC(F)(F)C5)sc4n3)cnc21` (stereo not drawn) [Compound B65, (3,3-difluorocyclobutyl)(6-(1-(2-propanyl)-1H-pyrazolo[3,4-b]pyridin-5-yl)thieno[2,3-b]pyridin-2-yl)methanol], the results for the IC50 (on 15-PGDH in A549 cells; in assay [1]) were 0.437 nM and 0.944 nM, respectively.

`[2H]C(O)(c1cc2ccc(-c3cnc4nn(C)cc4c3)nc2s1)C1CCOCC1` (stereo not drawn) [Compound B66, (6-(2-methyl-2H-pyrazolo[3,4-b]pyridin-5-yl)thieno[2,3-b]pyridin-2-yl)(tetrahydro-2H-pyran-4-yl)methan-d-ol]: the IC50 at 15-PGDH in A549 cells is 0.829 nM; in assay [1], 0.948 nM.

Regarding `Cn1nnc2cc(-c3ccc4cc([C@H](O)C5CC(F)(F)C5)sc4n3)cnc21` [Compound B82R, (R)-(3,3-difluorocyclobutyl)(6-(3-methyl-3H-[1,2,3]triazolo[4,5-b]pyridin-6-yl)thieno[2,3-b]pyridin-2-yl)methanol], the concentration for half-maximal inhibition (IC50) was found to be 0.0124 nM on 15-PGDH in A549 cells and 0.398 nM in assay [1].

As for `Cn1cc2cc(-c3cnc4cc([C@H](O)C5CC(F)(F)C5)sc4n3)cnc2n1` [Compound B92R, (R)-(3,3-difluorocyclobutyl)(3-(2-methyl-2H-pyrazolo[3,4-b]pyridin-5-yl)thieno[2,3-b]pyrazin-6-yl)methanol], the values for the IC50 (on 15-PGDH in A549 cells; in assay [1]) were 0.409 nM and 0.511 nM, respectively.

As to `Cn1cc2cc(-c3cnc4cc([C@@H](O)C5CC(F)(F)C5)sc4n3)cnc2n1` [Compound B92S, (S)-(3,3-difluorocyclobutyl)(3-(2-methyl-2H-pyrazolo[3,4-b]pyridin-5-yl)thieno[2,3-b]pyrazin-6-yl)methanol], the IC50 was 3.44 nM at 15-PGDH in A549 cells and 5.14 nM in assay [1].

Turning to `Cn1cc2cc(-c3ccc4cc(C5(O)CC(F)(F)C5)sc4n3)cnc2n1` [Compound C5, 3,3-difluoro-1-(6-(2-methyl-2H-pyrazolo[3,4-b]pyridin-5-yl)thieno[2,3-b]pyridin-2-yl)cyclobutanol], the IC50 came out at 1.69 nM on 15-PGDH in A549 cells and 0.371 nM in assay [1].

For the molecule `Cn1cc2cc(-c3ccc4cc(C5(O)CCC(F)(F)CC5)sc4n3)cnc2n1` [Compound C15, 4,4-difluoro-1-(6-(2-methyl-2H-pyrazolo[3,4-b]pyridin-5-yl)thieno[2,3-b]pyridin-2-yl)cyclohexanol], the IC50 at 15-PGDH in A549 cells worked out at 12.8 nM; in assay [1] it was 2.85 nM.

As for `Cn1cc2cc(-c3ccc4cc(C5(O)CCC5)sc4n3)cnc2n1` [Compound C21, 1-(6-(2-methyl-2H-pyrazolo[3,4-b]pyridin-5-yl)thieno[2,3-b]pyridin-2-yl)cyclobutanol], the IC50 on 15-PGDH in A549 cells was 18.9 nM; in assay [1] it was 1.76 nM.

Consider `Cn1cc2cc(-c3cc(-c4ccnn4C)c4cc(C(C)(O)C5CCC5)sc4n3)cnc2n1` (stereo not drawn) [Compound C23, 1-cyclobutyl-1-(6-(2-methyl-2H-pyrazolo[3,4-b]pyridin-5-yl)-4-(1-methyl-1H-pyrazol-5-yl)thieno[2,3-b]pyridin-2-yl)ethanol], for which the half-maximal inhibitory concentration (IC50) was determined as 4.77 nM on 15-PGDH in A549 cells and 0.543 nM in assay [1].

Consider `Cn1cc2cc(-c3ccc4cc(C5(O)CC6(CCC6)C5)sc4n3)cnc2n1` [Compound C25, 2-(6-(2-methyl-2HI-pyrazolo[3,4-b]pyridin-5-yl)thieno[2,3-b]pyridin-2-yl)spiro[3.3]heptan-2-ol], for which the figures for the IC50 (at 15-PGDH in A549 cells; in assay [1]) were 0.14 nM and 0.332 nM, respectively.

`Cn1cc2cc(-c3ccc4cc(C5(O)CC(C)(C)C5)sc4n3)cnc2n1` [Compound C26, 3,3-dimethyl-1-(6-(2-methyl-2H-pyrazolo[3,4-b]pyridin-5-yl)thieno[2,3-b]pyridin-2-yl)cyclobutanol]: the IC50 on 15-PGDH in A549 cells was determined as 0.0601 nM; in assay [1] it was 0.273 nM.
